Experimental data taken from publication PMC4288171, “Meclofenamic acid selectively inhibits FTO demethylation of m^6A over ALKBH5” (Nucleic Acids Research, 2014).

Target: T1, FTO (Homo sapiens, UniProt Q9C0B1)
T1 construct: FTOΔN31 (His-tag human FTO with N-terminal 31 residues truncated)
Experiment: crystal structure at […] Å; DSF shift; FP displacement (IC50 […]); IC50 from HPLC demethylation assay on ssDNA
Format: biochemical

T1 sequence (Q9C0B1 32-505): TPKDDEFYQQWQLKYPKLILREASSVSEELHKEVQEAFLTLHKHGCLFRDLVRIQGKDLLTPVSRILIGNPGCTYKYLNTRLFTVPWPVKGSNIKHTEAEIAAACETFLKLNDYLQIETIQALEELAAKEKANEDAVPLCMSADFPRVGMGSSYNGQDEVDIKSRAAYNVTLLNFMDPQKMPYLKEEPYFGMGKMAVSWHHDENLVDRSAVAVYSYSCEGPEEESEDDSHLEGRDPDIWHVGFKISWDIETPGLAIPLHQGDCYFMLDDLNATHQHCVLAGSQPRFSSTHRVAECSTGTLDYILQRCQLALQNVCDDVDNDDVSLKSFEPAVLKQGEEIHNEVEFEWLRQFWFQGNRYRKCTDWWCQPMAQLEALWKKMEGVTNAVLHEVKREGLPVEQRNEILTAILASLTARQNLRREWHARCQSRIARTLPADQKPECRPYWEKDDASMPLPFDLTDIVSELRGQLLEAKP

Compound: Cc1ccc(Cl)c(Nc2ccccc2C(=O)O)c1Cl [MA, meclofenamic acid]
- IC50: 7 µM
